Experimental data taken from patent US20210085796A1, “ANTICANCER DRUGS AND METHODS OF MAKING AND USING SAME” (YALE UNIVERSITY, priority 2017, published 2021).
“Also recorded” adds a separate entry of the source.

Legend:
[1] = Serum stability of prodrug (LCMS, 490 nm absorbance); assay type: in vitro ADME; conditions: 50 μM in PBS pH 7.4 with 20% mouse serum, 37° C., 6 hours of incubation
Description: FIG. 4A depicts liquid chromatography data showing the stability of YU241528 in serum.
The prodrug strategies of this invention are thought to impart their benefits during the distribution and cell uptake steps of anticancer therapy. In certain embodiments, a prodrug is stable in the blood for a period sufficient to allow for cell uptake and systemic clearance. To test this, 50 μM YU241528 in a solution of PBS, pH 7.4, containing 20% mouse serum was incubated at 37° C. At regular intervals, aliquots were taken and mixed with 2 volumes of ethanol to precipitate serum proteins, then centrifuged. Supernatants were analyzed by LCMS. […] The predominant peak was identified as YU241528 by mass spectrometry.

[2] = Blood levels after tail vein injection; assay type: in vivo, adult female balb/c mice
Description: Given that the drug's distribution and clearance can be expected to be substantially complete by about 6 hours after administration, in certain embodiments the peak intracellular dose is achieved long before this process might interfere to a significant degree, even assuming the altered metabolite is indeed compromised in its activity. […] In certain embodiments, the serum stability of YU241528 allows for effective therapy. […] In certain embodiments, the prodrug undergoes a different elimination path, as hepatobiliary elimination of weakly-ionic organic substances is sensitive to charge, size, and lipophilicity.

[3] = Reductive activation / doxorubicin release in 5 mM GSH (LCMS); assay type: in vitro ADME; conditions: 50 μM, PBS pH 7.4, 5 mM GSH, 37° C.
Description: In certain embodiments, the prodrug releases the active form of the drug once inside a cancer cell. Once inside the cell, drug release can be triggered by reduction of the disulfide bond in the linker. To evaluate the reductive activation of drug release, 50 μM YU241528 in a solution of PBS, pH 7.4, containing 5 mM GSH (a typical intracellular concentration of the predominant biological reducing agent) was incubated at 37° C. Aliquots were taken at regular intervals and analyzed by LCMS.

HeLa cells = experiment: pH-dependent cell uptake by flow cytometry; assay type: cell-based; conditions: 5 μM, 1 hour, pH 7.4 vs pH 6.5
Description: FIGS. 5A-5B depict representative flow cytometry traces of pH-dependent cell treatments. […] Normalized cell counts (Y-axes) are plotted vs. doxorubicin fluorescence intensity per cell (X-axes).

[4] = cited from earlier work
[5] = test system: MDA-MB-231 breast cancer cells; experiment: pH-dependent cell growth inhibition (CellTiter-Glo); assay type: cell-based, Human; conditions: 6 hours treatment at pH 7.4 or pH 6.2, then 72 hours growth
Description: Cells treated for 6 hours at pH 7.4 (normal physiological pH, X traces) or pH 6.2 (acidic solid tumor pH, Y traces) were subsequently allowed to grow in normal growth medium for 72 hours, then cell viability was evaluated using the CellTiter-Glo assay kit (Promega). Normalized percent cell growth inhibition is plotted on the left side of each panel and IC50 values reported at each pH from non-linear regression analysis.
(§1) In order to evaluate pH-dependent activity, treatments are performed at atypical cell culture conditions. […] Several cell lines have been evaluated using this method and for each, cell seeding density and treatment duration is independently experimentally determined. Each experiment is normalized to sham and complete activity controls for each pH condition.
Human MDA-MB-231 breast cancer cells seeded at low density on tissue culture treated 384-well plates, allowed to adhere and grow in serum-supplemented growth medium for 24 hours, then treated under pH-controlled conditions for 6 hours, and finally washed and grown in fresh growth media for 72 hours were assessed for cell survival using the CellTiter-Glo assay system (Promega) (FIG. 6).

[6] = test system: PEO1 ovarian cancer cells; experiment: pH-dependent cell growth inhibition, transient treatment; assay type: cell-based; conditions: for pH dependence of cell growth inhibition: pH 7.4 vs pH 6.2
Description: FIG. 9 depicts pH-dependent cell growth inhibition of PEO1 ovarian cancer cells in culture, treated transiently with various prodrugs of the invention, as described above.
FIG. 10 depicts pH-dependent cell growth inhibition of PEO1 ovarian cancer cells in culture, treated transiently with an anticancer kinase inhibitor drug, Osimertinib, or a compound of the invention, based on an active core of that drug, YU253673.
as §1
Similar results have been obtained from pH-dependent cell growth inhibition assays with other classes of Drug using the prodrug approach.

EMT-6 flank tumors = experiment: In vivo efficacy and toxicity in EMT-6 flank tumor model; set-up: species or system Balb/c mice; conditions: IV once daily for 5 days
Description: FIG. 7 depicts representative in vivo study on the efficacy and toxicity of compounds of the invention. […] Mean tumor volume and mean body weight graphs are shown for groups of 10 tumor-bearing mice.
FIG. 8 depicts the dose dependence of YU241531 (right panel) and YU244206 (left panel) treatments in the EMT-6 tumor model in Balb/c mice.

Compound	pH preference of cell uptake (HeLa cells)	pH dependence of cell growth inhibition [5]	pH dependence of cell growth inhibition [6]	body weight loss compared to sham treated controls (EMT-6 flank tumors)	further results
8-((2-((((2S,3S,4S,6R)-3-hydroxy-2-methyl-6-(((1S,3S)-3,5,12-trihydroxy-3-(2-hydroxyacetyl)-10-methoxy-6,11-dioxo-1,2,3,4,6,11-hexahydrotetracen-1-yl)oxy)tetrahydro-2H-pyran-4-yl)carbamoyl)oxy)ethyl)disulfaneyl)-2,2-dimethyloctanoic acid [YU241528]	preferentially taken up by cells at cancerous pH 6.5 versus cells at normal pH 7.4	–	–	–	release of free doxorubicin / stability in serum [1]: no active doxorubicin is released; also recorded: no free doxorubicin was detected; also recorded: stable in serum; non-compartmental half-life in blood [2]: about 1 hour; level in the blood at 6 hours post injection ([2]; 6 hours): remains at detectable levels; level in the blood at 24 hours post injection ([2]; 24 hours): undetectable; t1/2 of reduction of the disulfide [3]: ~2.7 min
COc1cccc2c1C(=O)c1c(O)c3c(c(O)c1C2=O)C[C@@](O)(C(=O)CO)C[C@@H]3O[C@H]1C[C@H](N)[C@H](O)[C@H](C)O1 [Doxorubicin, reference compound]	greater uptake into cells at normal physiologic pH 7.4 than into cells at cancerous pH 6.5	greater growth inhibition at basic healthy pH	–	–	basic pKA of amine group [4]: ~8
C=CC(=O)Nc1cc(Nc2nccc(-c3cn(C)c4ccccc34)n2)c(OC)cc1N(C)CCN(C)C [Osimertinib, reference compound]	–	–	slightly lower IC50 value at healthy pH 7.4	–	–
COc1cccc2c1C(=O)c1c(O)c3c(c(O)c1C2=O)C[C@@](O)(C(=O)CO)C[C@@H]3O[C@H]1C[C@H](NC(=O)OCCSSCCCCCCCC(=O)O)[C@H](O)[C@H](C)O1 [YU241531, 8-((2-((((2S,3S,4S,6R)-3-hydroxy-2-methyl-6-(((1S,3S)-3,5,12-trihydroxy-3-(2-hydroxyacetyl)-10-methoxy-6,11-dioxo-1,2,3,4,6,11-hexahydrotetracen-1-yl)oxy)tetrahydro-2H-pyran-4-yl)carbamoyl)oxy)ethyl)disulfaneyl)octanoic acid]	–	greater growth inhibition at acidic tumor pH	–	no detectable weight loss	–
COc1cccc2c1C(=O)c1c(O)c3c(c(O)c1C2=O)C[C@@](O)(C(=O)CO)C[C@@H]3O[C@H]1C[C@H](NC(=O)OCCSSCCCc2c(F)c(F)c(O)c(F)c2F)[C@H](O)[C@H](C)O1 [YU244206, 2-((3-(2,3,5,6-tetrafluoro-4-hydroxyphenyl)propyl)disulfaneyl)ethyl ((2S,3S,4S,6R)-3-hydroxy-2-methyl-6-(((1S,3S)-3,5,12-trihydroxy-3-(2-hydroxyacetyl)-10-methoxy-6,11-dioxo-1,2,3,4,6,11-hexahydrotetracen-1-yl)oxy)tetrahydro-2H-pyran-4-yl)carbamate]	–	greater growth inhibition at acidic tumor pH	–	no detectable weight loss	–
C=CC(=O)Nc1cc(Nc2nccc(-c3cn(C)c4ccccc34)n2)c(OC)cc1N(C)CCCc1c(F)c(F)c(O)c(F)c1F [YU253673, N-(4-methoxy-2-(methyl(3-(2,3,5,6-tetrafluoro-4-hydroxyphenyl)propyl)amino)-5-((4-(1-methyl-1H-indol-3-yl)pyrimidin-2-yl)amino)phenyl)acrylamide]	–	–	far greater activity at tumor pH 6.2	–	cell growth inhibition at pH 6.2 ([6]; pH 6.2): potent cell growth inhibition; fold greater activity in tumor pH conditions compared with healthy pH conditions ([6]; pH 6.2 vs pH 7.4): more than 30 fold; cell growth inhibition at pH 7.4 ([6]; pH 7.4): no observed activity
